In patent US20240409585A1, “MACROCYCLIC IMMUNOMODULATORS” (priority 2021, published 2024):
Read-outs that look alike come from different tables or passages of the source. Bridge positions count the residues as written; N and C are the ends. Square brackets hold non-standard residues; d marks the D form. Peptide text beside a SMILES is read from it. * marks the point of attachment. Bip(4'-COOH) = N[C@@H](Cc1ccc(-c2ccc(C(=O)O)cc2)cc1)C(=O)O; Bip(4'-NHAc) = CC(=O)Nc1ccc(-c2ccc(C[C@H](N)C(=O)O)cc2)cc1; Phe(3-CF3) = N[C@@H](Cc1cccc(C(F)(F)F)c1)C(=O)O; Ala(morpholin-4-yl) = N[C@@H](CN1CCOCC1)C(=O)O; Phe(4-COOH) = N[C@@H](Cc1ccc(C(=O)O)cc1)C(=O)O; Bip = N[C@@H](Cc1ccc(-c2ccccc2)cc1)C(=O)O; Phe(3-Me) = Cc1cccc(C[C@H](N)C(=O)O)c1; Cha = N[C@@H](CC1CCCCC1)C(=O)O; Carboxymethyl = O=C(O)C*; NMeA = CN[C@@H](C)C(=O)O; Nle = CCCC[C@H](N)C(=O)O; Orn = NCCC[C@H](N)C(=O)O; Dab = NCC[C@H](N)C(=O)O; Nva = CCC[C@H](N)C(=O)O

How the values were obtained:
[1] = target: T1, PE-labeled human PD-L1-Ig binding to Jurkat cell line over-expressing human PD-1 (Jurkat-PD-1) (Homo sapiens, UniProt Q15116); assay: Jurkat-PD-1 Cell Binding High-Content Screening Assay (CBA): Method 1; conditions: Jurkat-PD-1 cells, PE-labeled PD-L1-Ig
T1 construct: expressed in transfected cells; host or cells: Jurkat

[2] = target: T1, PE-labeled human PD-L1-Ig binding to Jurkat cell line over-expressing human PD-1 (Jurkat-PD-1); assay: Jurkat-PD-1 Cell Binding High-Content Screening Assay (CBA): Method 2 (presence and absence of tween-20); conditions: Jurkat-PD-1 cells, PE-labeled PD-L1-Ig 20 nM, presence or absence of tween-20 not given
Summary of the method: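 Compounds incubated with Jurkat cells overexpressing human PD-1 for 2 h at 37° C, tested with and without tween-20 to flag aggregation. PE-labeled human PD-L1-Ig (20 nM final) added in DMEM/10% FCS; binding read by high-content imaging.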

[3] = target: T2, Alexa fluor-647 labeled human PD-L1-Ig binding to Jurkat cell line over-expressing human PD-1 (Homo sapiens, UniProt Q15116); assay: Jurkat-PD-1 Cell Binding High-Content Screening Assay (CBA): Method 3 (Alexa fluor-647 labeled PD-L1-Ig); conditions: Jurkat-PD-1 cells, Alexa fluor-647 labeled PD-L1-Ig 177 nM
T2 construct: expressed in transfected cells; host or cells: Jurkat
Summary of the method: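 Readout by high-content imaging of PFA-fixed, Hoechst-stained cells after 1 h with 177 nM (final) Alexa fluor-647 PD-L1-Ig. Compound was added first to hPD-1 Jurkat cells in RPMI plus 10% FCS for 2 h at 37 °C.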

[4] = target: T3, PD1-PDL1 protein-protein binding interaction [hPD1(25-167)-hIgG, hPD-L1 (19-239)-6xHis] (Homo sapiens, UniProt Q15116); assay: HTRF Assay (TR-FRET); conditions: 5 nM hPD1-hIgG, 5 nM hPD-L1-6xHis, 24 hours at 25° C.
T3 construct: hPD1(25-167)-hIgG, BMS
Protocol: A time-resolved fluorescence resonance energy transfer (TR-FRET) assay was employed to measure the inhibition of the PD1-PDL1 protein-protein binding interaction. The reaction buffer was prepared by mixing the HiBlock buffer and LANCE detection buffer (PerkinElmer, TRF1011F and CR97-100) at a 1:1 ratio. Assay reactions contained 5 nM human programmed cell death 1 [hPD1(25-167)-hIgG, BMS], 5 nM human programmed cell death ligand 1 [hPD-L1 (19-239)-6×His, BMS], in the presence of 1 nM LANCE Eu-W1024 Anti-Human IgG (Eu-anti hIgG, PerkinElmer, AD0074) and 20 nM SureLight Allophycocyanin-anti-6×His antibody (APC-anti-6×His, PerkinElmer, AD0059H). Test compounds were evaluated in a 10-point dose-response format with serial three-fold dilutions starting from a 2 uM top concentration. Reactions were carried out in a total volume of 10 uL in 384-well microtiter plates (Proxiplate white, PerkinElmer, 6008289). Plates were sealed and incubated for 24 hours at 25° C. After 24 hours, the TR-FRET signal was measured using a PerkinElmer EnVision multimode plate reader and the resulting ratiometric data set (signal at 665 nm/615 nm, multiplied by a factor of 10,000) was recorded. The concentration giving half-maximal inhibition (the IC50) was obtained by fitting the data to a four-parameter logistic equation using Graphpad Prism or Dotmatics.

[5] = head μM, read-out: CBA Method 2 μM

T1 sequence (Q15116 25-288): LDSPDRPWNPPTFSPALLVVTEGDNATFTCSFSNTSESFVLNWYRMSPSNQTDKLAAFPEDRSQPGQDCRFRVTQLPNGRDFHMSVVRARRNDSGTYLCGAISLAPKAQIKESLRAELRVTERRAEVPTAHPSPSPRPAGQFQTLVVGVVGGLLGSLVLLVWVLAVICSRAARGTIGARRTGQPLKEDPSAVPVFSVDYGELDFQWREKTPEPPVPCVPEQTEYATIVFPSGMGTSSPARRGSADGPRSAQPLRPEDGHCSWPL
T3 sequence (Q15116 25-167): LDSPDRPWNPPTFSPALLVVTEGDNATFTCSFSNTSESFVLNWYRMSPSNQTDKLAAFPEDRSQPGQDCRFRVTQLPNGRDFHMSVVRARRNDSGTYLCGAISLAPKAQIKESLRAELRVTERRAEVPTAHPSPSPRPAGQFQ
T2 sequence (Q15116 25-288): as the sequence (Q15116 25-288) above

IC50 ([1]; μM, read-out: CBA Method 1 μM) [nM]	IC50 [2, 5] [nM]	SMILES	also measured
		CC(C)C[C@H]1NC(=O)[C@H](C)N(C)C(=O)[C@H](CCCN)NC(=O)[C@H](Cc2ccc(-c3ccccc3)cc2)NC(=O)[C@H](Cc2ccc(-c3ccc(C(=O)O)cc3)cc2)NC(=O)[C@H](Cc2cccc(C(F)(F)F)c2)NC(=O)[C@H](CC(=O)O)NC(=O)[C@H](Cc2ccc(-c3ccc(C(=O)O)cc3)cc2)NC(=O)[C@H](Cc2ccc(OCC(=O)O)cc2)NC(=O)CSC[C@@H](C(=O)N[C@@H](CCN)C(N)=O)NC(=O)[C@H](CC(N)=O)NC(=O)[C@H](C(C)C)NC(=O)[C@H](CC2CCCCC2)NC(=O)[C@H](CCN)NC1=O [Example 5086] ({CH2CO}-Y(Carboxymethyl)[Bip(4'-COOH)]D[Phe(3-CF3)][Bip(4'-COOH)][Bip][Orn][NMeA][dL][Dab][Cha]VNC[Dab]-NH2; thioether N-14)	IC50 ([1]; nM, read-out: CBA Method 1): 5.5 nM; IC50 ([2]; nM, read-out: CBA Method 2): 9.9 nM
30	110	CC(C)C[C@H]1NC(=O)[C@H](C)N(C)C(=O)[C@H](CCCN)NC(=O)[C@H](Cc2ccc(-c3ccccc3)cc2)NC(=O)[C@H](Cc2ccc(-c3ccc(C(=O)O)cc3)cc2)NC(=O)[C@H](Cc2cccc(C(F)(F)F)c2)NC(=O)[C@H](CC(=O)O)NC(=O)[C@H](Cc2ccc(-c3ccc(C(=O)O)cc3)cc2)NC(=O)[C@H](Cc2ccc(OCC(=O)O)cc2)NC(=O)CSC[C@@H](C(=O)N[C@@H](CCN)C(N)=O)NC(=O)[C@H](CCCN)NC(=O)[C@H](C(C)C)NC(=O)[C@H](CC2CCCCC2)NC(=O)[C@H](CCN)NC1=O [Example 5087] ({CH2CO}-Y(Carboxymethyl)[Bip(4'-COOH)]D[Phe(3-CF3)][Bip(4'-COOH)][Bip][Orn][NMeA][dL][Dab][Cha]V[Orn]C[Dab]-NH2; thioether N-14)	
90	200	CCCC[C@@H]1NC(=O)CSC[C@@H](C(=O)N[C@@H](CCN)C(N)=O)NC(=O)[C@H](CCCN)NC(=O)[C@H](C(C)C)NC(=O)[C@H](CC2CCCCC2)NC(=O)[C@H](CCN)NC(=O)[C@@H](CC(C)C)NC(=O)[C@H](C)N(C)C(=O)[C@H](CCCN)NC(=O)[C@H](Cc2ccc(-c3ccccc3)cc2)NC(=O)[C@H](Cc2ccc(-c3ccc(C(=O)O)cc3)cc2)NC(=O)[C@H](Cc2cccc(C(F)(F)F)c2)NC(=O)[C@H](CC(=O)O)NC(=O)[C@H](Cc2ccc(-c3ccc(C(=O)O)cc3)cc2)NC1=O [Example 5088] ({CH2CO}-[Nle][Bip(4'-COOH)]D[Phe(3-CF3)][Bip(4'-COOH)][Bip][Orn][NMeA][dL][Dab][Cha]V[Orn]C[Dab]-NH2; thioether N-14)	
10	110	CCCC[C@@H]1NC(=O)CSC[C@@H](C(=O)N[C@@H](CCN)C(N)=O)NC(=O)[C@H](CCC(=O)O)NC(=O)[C@H](C(C)C)NC(=O)[C@H](CC2CCCCC2)NC(=O)[C@H](CCN)NC(=O)[C@@H](CC(C)C)NC(=O)[C@H](C)N(C)C(=O)[C@H](CCCN)NC(=O)[C@H](Cc2ccc(-c3ccccc3)cc2)NC(=O)[C@H](Cc2ccc(-c3ccc(C(=O)O)cc3)cc2)NC(=O)[C@H](Cc2cccc(C(F)(F)F)c2)NC(=O)[C@H](CC(=O)O)NC(=O)[C@H](Cc2ccc(-c3ccc(C(=O)O)cc3)cc2)NC1=O [Example 5089] ({CH2CO}-[Nle][Bip(4'-COOH)]D[Phe(3-CF3)][Bip(4'-COOH)][Bip][Orn][NMeA][dL][Dab][Cha]VEC[Dab]-NH2; thioether N-14)	
10		CCCC[C@@H]1NC(=O)CSC[C@@H](C(=O)N[C@@H](CCN)C(N)=O)NC(=O)[C@H](CC(N)=O)NC(=O)[C@H](C(C)C)NC(=O)[C@H](CC2CCCCC2)NC(=O)[C@H](CCN)NC(=O)[C@@H](CC(C)C)NC(=O)[C@H](C)N(C)C(=O)[C@H](CCCN)NC(=O)[C@H](Cc2ccc(-c3ccccc3)cc2)NC(=O)[C@H](Cc2ccc(-c3ccc(C(=O)O)cc3)cc2)NC(=O)[C@H](Cc2cccc(C(F)(F)F)c2)NC(=O)[C@H](CC(=O)O)NC(=O)[C@H](Cc2ccc(-c3ccc(C(=O)O)cc3)cc2)NC1=O [Example 5090] ({CH2CO}-[Nle][Bip(4'-COOH)]D[Phe(3-CF3)][Bip(4'-COOH)][Bip][Orn][NMeA][dL][Dab][Cha]VNC[Dab]-NH2; thioether N-14)	IC50 ([2]; nM, read-out: CBA Method 2): 8.7 nM
90	70	CC(=O)Nc1ccc(-c2ccc(C[C@@H]3NC(=O)[C@H](Cc4cccc(C(F)(F)F)c4)NC(=O)[C@H](CC(=O)O)NC(=O)[C@H](Cc4ccc(-c5ccc(C(=O)O)cc5)cc4)NC(=O)[C@H](CN4CCOCC4)NC(=O)CSC[C@@H](C(=O)N[C@@H](CCN)C(N)=O)NC(=O)[C@H](CCN)NC(=O)[C@H](C(C)C)NC(=O)[C@H](CC4CCCCC4)NC(=O)[C@H](CCN)NC(=O)[C@@H](CC(C)C)NC(=O)[C@H](C)N(C)C(=O)[C@H](CCCN)NC(=O)[C@H](Cc4ccc(-c5ccccc5)cc4)NC3=O)cc2)cc1 [Example 5091] ({CH2CO}-[Ala(morpholin-4-yl)][Bip(4'-COOH)]D[Phe(3-CF3)][Bip(4'-NHAc)][Bip][Orn][NMeA][dL][Dab][Cha]V[Dab]C[Dab]-NH2; thioether N-14)	
		CC(=O)Nc1ccc(-c2ccc(C[C@@H]3NC(=O)CSC[C@@H](C(=O)N[C@@H](CCN)C(N)=O)NC(=O)[C@H](CCCN)NC(=O)[C@H](C(C)C)NC(=O)[C@H](CC4CCCCC4)NC(=O)[C@H](CCN)NC(=O)[C@@H](CC(C)C)NC(=O)[C@H](C)N(C)C(=O)[C@H](CCC(N)=O)NC(=O)[C@H](Cc4ccc(-c5ccccc5)cc4)NC(=O)[C@H](Cc4ccc(C(=O)O)cc4)NC(=O)[C@H](Cc4cccc(C)c4)NC(=O)[C@H](CC(=O)O)NC(=O)[C@H](Cc4ccc(OCC(=O)O)cc4)NC3=O)cc2)cc1 [Example 5173] ({CH2CO}-[Bip(4'-NHAc)]Y(Carboxymethyl)D[Phe(3-Me)][Phe(4-COOH)][Bip]Q[NMeA][dL][Dab][Cha]V[Orn]C[Dab]-NH2; thioether N-14)	IC50 ([3]; head μM, read-out: CBA Method 3 μM): 0.02 µM; IC50 ([4]; head μM): 0.07 µM
		Cc1cccc(C[C@@H]2NC(=O)[C@H](CC(=O)O)NC(=O)[C@H](Cc3ccc(OCC(=O)O)cc3)NC(=O)[C@H](Cc3ccc(-c4ccc(C(=O)O)cc4)cc3)NC(=O)CSC[C@@H](C(=O)N[C@@H](CCN)C(N)=O)NC(=O)[C@H](CCCN)NC(=O)[C@H](C(C)C)NC(=O)[C@H](CC3CCCCC3)NC(=O)[C@H](CCN)NC(=O)[C@@H](CC(C)C)NC(=O)[C@H](C)N(C)C(=O)[C@H](CCC(N)=O)NC(=O)[C@H](Cc3ccc(-c4ccccc4)cc3)NC(=O)[C@H](Cc3ccc(C(=O)O)cc3)NC2=O)c1 [Example 5177] ({CH2CO}-[Bip(4'-COOH)]Y(Carboxymethyl)D[Phe(3-Me)][Phe(4-COOH)][Bip]Q[NMeA][dL][Dab][Cha]V[Orn]C[Dab]-NH2; thioether N-14)	IC50 ([3]; nM, read-out: CBA Method 3): 0.0076 µM; IC50 ([4]; head μM): 0.03 µM
		CCC[C@@H]1NC(=O)CSC[C@@H](C(=O)N[C@@H](CCN)C(N)=O)NC(=O)[C@H](CCCN)NC(=O)[C@H](C(C)C)NC(=O)[C@H](CC2CCCCC2)NC(=O)[C@H](CCN)NC(=O)[C@@H](CC(C)C)NC(=O)[C@H](C)N(C)C(=O)[C@H](CCC(N)=O)NC(=O)[C@H](Cc2ccc(-c3ccccc3)cc2)NC(=O)[C@H](Cc2ccc(C(=O)O)cc2)NC(=O)[C@H](Cc2cccc(C)c2)NC(=O)[C@H](CC(=O)O)NC(=O)[C@H](Cc2ccc(OCC(=O)O)cc2)NC1=O [Example 5297] ({CH2CO}-[Nva]Y(Carboxymethyl)D[Phe(3-Me)][Phe(4-COOH)][Bip]Q[NMeA][dL][Dab][Cha]V[Orn]C[Dab]-NH2; thioether N-14)	IC50 ([4]; nM): 0.0023 µM
